From patent publication US20210253454A1, “MICELLAR DELIVERY METHOD” (EVONIK OPERATIONS GMBH, priority 2018, published 2021)

Legend:
[1] = tested on: Pseudomonas aeruginosa (ATCC 15442) biofilm; test: Biocidal activity on biofilm, CDC Biofilm reactor, glass coupons, 1-4 hrs; format: cell-based; settings: initial 100 ppm
Excerpt: We evaluated the biocidal activity of PAA-surfactant solutions on microbial biofilms using a CDC Biofilm reactor from BioSurface Technologies. This reactor supplies a continuous flow of nutrient broth through a container that exposes bacteria growing on glass coupons to shear forces. The setup mimics at least two features typical for oilfield operations: a renewable nutrient source and shear forces applied to the biofilms. All reactor parts were cleaned with a solution of 1% Neutrad lab soap and rinsed well with deionized water, and allowed to dry prior to autoclaving on a 20 minutes gravity cycle to sterilize.
Pseudomonas aeruginosa (ATCC 15442) biofilm was grown for 48 hours in the biofilm reactor on glass coupons at 25° C. A solution containing 300 mg/L of sterile trypticase soy broth (TSB) was used as nutrient feed. 1 mL of the working inoculum of P. aeruginosa was added through the inoculation port. The first step was a 24 hours batch phase followed by 24 hours in continuous flow mode, when 100 mg/L TSB solution was pumped into the stirring reactor for about 24 hours at room temperature to create a matured biofilm on the coupon surfaces.
(§1) Upon completion of the biofilm growth phase, the coupons were removed and rinsed by immersion into 30 mL dilution buffer. Coupons were placed into sterile centrifuge test tubes and 4 mL biocide or buffer were added. Then the tubes were vortexed on low speed to ensure complete coverage of the coupon. At the appropriate time, the biocide was poured off, and reserved for chemical analysis of PAA and hydrogen peroxide. Then, a 10 mL aliquot of chemical neutralizing Letheen broth with 0.5% sodium thiosulfate was added to each tube. One treated coupon from each treatment group was removed at final time point for visual analysis.
The compositions were diluted with deionized water before use, such that the initial concentration of PAA-surfactant active ingredient was 100 ppm.
In order to recover remaining viable bacteria from the coupons, the test tubes with coupons were vortexed for 30 s on highest setting, and then sonicated for 30 s at 45 kHz. This treatment was then repeated twice. After that, the broth was diluted serially into Butterfield's buffer, and the dilutions plated on 3M™ Petrifilm™ Aerobic Count Plates. The plates were incubated for 48 hours at 35° C., and then counted. Calculations were performed to obtain the Log10 CFU/mL of the solutions at each time point.

[2] = Oxidizer (PAA, hydrogen peroxide) concentration in treatment solution during biofilm test; format: physicochemical; settings: initial 100 ppm
Procedure: as §1
PAA and Hydrogen peroxide concentrations were monitored during the test by using Chemetrics test kits K-7913F and K-5543.
We further evaluated the biocidal activity of PAA-surfactant solutions on microbial biofilms using a CDC Biofilm reactor from BioSurface Technologies as described in Example 9. The three biocide solutions were also as described in Example 9, but the contact time was increased to about 72 hours under agitation. Additionally, for this test, the biocide aliquot was increased from the standard method amount of 4 mL up to 30 mL. These adjustments were made to more accurately simulate expected field conditions. The recovery was performed as described in the Example 8. […] Chemical analysis indicated only a slight reduction in concentrations of both PAA and hydrogen peroxide over the 72-hour time period.

SMILES: CC(=O)OO [PAA, peracetic acid]
- Log10 reduction ([1]; 1 hrs): 1.4 Log10
- Log10 remaining ([1]; 1 hrs): 7.8 Log10 CFU/mL
- Log10 reduction ([1]; 2 hrs): 2.2 Log10
- Log10 remaining ([1]; 2 hrs): 7.0 Log10 CFU/mL
- Log10 reduction ([1]; 4 hrs): 3.1 Log10
- Log10 remaining ([1]; 4 hrs): 6.1 Log10 CFU/mL
- H2O2, ppm ([2]; 1 hrs): 35 ppm
- PAA, ppm ([2]; 1 hrs): 63 ppm
- H2O2, ppm ([2]; 2 hrs): 27 ppm
- PAA, ppm ([2]; 2 hrs): 54 ppm
- H2O2, ppm ([2]; 4 hrs): 10 ppm
- PAA, ppm ([2]; 4 hrs): 30 ppm
